Columns and labels:
[1] = target: T1, amino-acid transporter AAP2 (Arabidopsis thaliana, UniProt Q38967); test: Uptake of radiolabeled L-proline by yeast mutant 22457d-AAP2 expressing the plant amino-acid transporter; type: cell-based; settings: L-[14C]-proline uptake, read-out: Activity relative to control [%]
T1 construct: expressed in transfected cells; host or cells: Saccharomyces cerevisiae mutant 22574d (also printed 22457d)
T1 sequence (Q38967 1-493): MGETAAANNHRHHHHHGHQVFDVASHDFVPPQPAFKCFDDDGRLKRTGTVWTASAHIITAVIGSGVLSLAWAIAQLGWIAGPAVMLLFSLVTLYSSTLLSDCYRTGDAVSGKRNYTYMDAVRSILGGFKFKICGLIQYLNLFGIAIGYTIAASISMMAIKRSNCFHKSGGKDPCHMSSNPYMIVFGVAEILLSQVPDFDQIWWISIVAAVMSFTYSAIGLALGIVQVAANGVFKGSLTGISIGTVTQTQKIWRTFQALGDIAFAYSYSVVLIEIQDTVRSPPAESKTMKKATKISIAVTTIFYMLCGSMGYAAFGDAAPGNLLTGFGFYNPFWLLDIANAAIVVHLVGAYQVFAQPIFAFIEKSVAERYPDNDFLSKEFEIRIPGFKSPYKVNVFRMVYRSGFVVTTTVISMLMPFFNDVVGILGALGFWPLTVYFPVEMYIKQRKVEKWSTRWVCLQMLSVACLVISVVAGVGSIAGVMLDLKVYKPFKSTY
Experimental: Transporter investigations are carried out on the yeast mutant 22574d (Jauniaux & Grenson, Eur. J. Biochem. 190: 39-44, 1990), which harbors a mutation in the gene for amino-acid permease, and on the yeast mutant JT 16 (Tanaka and Fink, Gene 38: 205-214, 1985) which is incapable of histidine uptake, for identification of inhibitors of plant amino-acid transporters. These mutants are transformed with cDNA sequences which code for plant amino-acid transporters and lead to expression of functional transporters in the yeast cells. The cDNA sequences are cDNA sequences which code for the amino-acid transporters AAP1 and AAP2 from Arabidopsis thaliana (Frommer et al., 1993, Proc. Natl. Acad. Sci. USA 90: 5944-5948; Kwart et al., 1993, Plant J. 4:993-1002). For the measurements, cells of these mutants are cultured in minimal medium (NAAG+5 mmol/l proline) at 28° C. and harvested in the logarithmic phase (OD600 =0.6). The cells are spun down in a centrifuge at 4000 rpm and 4 degrees Celsius for 10 minutes and washed 2× with AUB buffer (modified AAB buffer, Ljungdahl et al.). The cell concentration is adjusted to an OD600 of 25 in AUB buffer.
100 μl portions of the cell suspension are mixed with 100 μl of a 1 mmol/l L-proline solution (18.5 kBq of L-[14C]-proline) and various concentrations of the appropriate substance to be investigated. After 20, 60, 120 and 180 seconds, a 50 μl aliquot is removed, diluted in 4 ml -of ice-cold AUB buffer and filtered through glass fever [sic] filter. In order to remove nonspecifically bound L-[14C]-proline, the cells are washed 2× with 4 ml of ice-cold water each time. The radioactivity retained on the glass filter is then measured in a liquid scintillation counter. The radioactivity reflects the amount of radiolabeled proline taken up by the cells. Uptake of radiolabeled proline without addition of a potential inhibitor is determined as one control. Cells of each of the mutants 22574d and JY 16 which have not been transformed with cDNA sequences coding for plant amino-acid transporters are used as further control. Results of measurements of this type on the mutants 22457d-AAP2 which expresses the amino-acid transporter AAP2 from Arabisopsis [sic] thaliana are shown in the following table.
For the investigations, yeast cells of the strain 22457d were transformed with a cDNA sequence which codes for the amino-acid transporter AAP2, and the uptake of radiolabeled proline in the presence of various substances was determined. The various substances tested, their concentration, and the activity of the transporter, shown as percentage activity of the control with which no potential inhibitors were added, are indicated.

[2] = target: T2, sucrose transporter S21 (SoSUT1) (Spinacia oleracea, UniProt Q03411); test: [14C]-sucrose uptake by yeast strain SUSY7 expressing the spinach sucrose transporter; type: cell-based; settings: [14C]-sucrose uptake, pH 3.8, read-out: Activity relative to the control [%]
T2 construct: expressed in transfected cells; host or cells: Saccharomyces cerevisiae SUSY7
T2 sequence (Q03411 1-525): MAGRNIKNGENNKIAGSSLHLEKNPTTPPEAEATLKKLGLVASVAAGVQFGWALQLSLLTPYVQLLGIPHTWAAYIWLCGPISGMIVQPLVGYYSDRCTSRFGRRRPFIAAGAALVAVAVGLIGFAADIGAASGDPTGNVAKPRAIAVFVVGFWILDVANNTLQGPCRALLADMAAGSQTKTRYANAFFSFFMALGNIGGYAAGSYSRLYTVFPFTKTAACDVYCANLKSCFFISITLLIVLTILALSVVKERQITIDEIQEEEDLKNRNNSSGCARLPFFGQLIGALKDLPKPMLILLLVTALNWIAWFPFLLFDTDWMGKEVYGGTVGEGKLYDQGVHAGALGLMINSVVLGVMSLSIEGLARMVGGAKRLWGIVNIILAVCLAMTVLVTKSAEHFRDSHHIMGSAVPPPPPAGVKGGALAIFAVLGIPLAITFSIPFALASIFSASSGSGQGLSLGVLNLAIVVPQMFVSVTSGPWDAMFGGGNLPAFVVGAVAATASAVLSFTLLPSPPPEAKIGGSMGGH
Experimental: Yeast cells of the strain SUSY7 (Riesmeier et al., 1992, EMBO J. 11: 4705-4713) are used to identify substances which have an inhibitory effect on sucrose transporters from spinach. Cells of this strain are transformed with a cDNA sequence which codes for the sucrose transporter S21 (SoSUT1) from spinach and which ensures expression of a functional transporter in the cells. The yeast cells are cultured in minimal medium (SD+2% (w/v) sucrose, pH 3.8) at 28° C. and harvested in the logarithmic phase (OD600 =0.6). The cells are spun down at 4000 rpm for 10 minutes and washed twice with SD medium. A cell concentration of c=50 g/l in SD medium is adjusted according to the wet weight of the cells, and 200 μl aliquot fractions are taken. Before the actual reaction, the cells are incubated in 10 mM glucose for 5 min and adjusted to pH 3.8 with MES buffer. The reaction is started by adding 200 μl of a 0.2 mmol/l [14C]-sucrose solution (3 mCi/mmol) in SD medium (pH 3.8). After 20, 60, 120, 180 and 240 seconds, 70 μl portions of the suspension are removed and pipetted into 4 ml of ice-cold water in order to stop the reaction. The cells are filtered off on glass fiber filters and washed twice with ice-cold water. The radioactivity on the filters is subsequently determined in a liquid scintillation counter. The substances to be tested are added 30 seconds before addition of the sucrose. The uptake of radiolabeled sucrose without addition of a potential inhibitor is determined as one control. Cells of the strain SUSY7 which are not transformed with cDNA sequences coding for a sucrose transporter from spinach are employed as further control.
The various tested substances, their concentration and the activity of the transporter, shown as percentage activity of the control in which no potential inhibitors were added, are indicated. Substances which specifically show an inhibitory effect on the sucrose transporter S21 (SoSUT1), are tested for their herbicidal and growth-regulating effect on whole plants.

remaining activity at 1000 µM ([1]; tested substance 1 mM) | remaining activity at 500 µM ([2]; tested substance 0.5 mM) | SMILES | remaining activity at 10 µM ([1]; tested substance 10 μM) | remaining activity at 10 µM ([2]; tested substance 10 μM)
3.1 ± 1.2% | 6% | CCOC(=O)OC(=O)OCC [DEPC, diethyl pyrocarbonate] |  | 
 |  | N#CC(C#N)=NNc1cccc(Cl)c1 [CCCP] | 15.6 ± 2.1% | 10%

— patent US5750362A, “Methods for identifying substances with a potential herbicidal or growth-regulating action by means of plant transporter proteins, the use of the transporter proteins, and substances with a herbicidal and growth-regulating action” (BASF Aktiengesellschaft, priority 1993, dated 1998)
